# Data as given in patent publication US11992499B2, “Quinoline derivatives for use in the treatment of inflammation diseases” (ABIVAX, priority 2018, dated 2024).
# Entries after “also recorded” stand apart in the source; their conditions may differ.
# How the values were obtained:
# [1] = system: STAM model of non-alcoholic steatohepatitis; assay: STAM model of NASH: HE staining and NAFLD Activity score; assay type: in vivo, mice; design: key to NAFLD Activity score (mean ± SD): NAFLD Activity score per Kleiner et al. 2005 criteria
# Protocol: NASH was induced in 48 male mice by a single subcutaneous injection of 200 μg streptozotocin (STZ, Sigma-Aldrich, USA) solution 2 days after birth and feeding with high fat diet (HFD, 57 kcal % fat, Cat #HFD32, CLEA Japan, Inc., Japan) after 4 weeks of age. Compound A was administered at 3 dose levels of 10, 20 and 40 mg/kg once daily from 6 to 9 weeks of age. Compound B was administered at a dose of 40 mg/kg once daily from 6 to 9 weeks of age. Telmisartan was administered at a dose of 10 mg/kg once daily from 6 to 9 weeks of age. For HE staining, sections were cut from paraffin blocks of liver tissue prefixed in Bouin's solution and stained with Lillie-Mayer's Hematoxylin (Muto Pure Chemicals Co., Ltd., Japan) and eosin solution (FUJIFILM Wako Pure Chemical Corporation). NAFLD Activity score (NAS) was calculated according to the criteria of Kleiner (Kleiner D E. et al., Hepatology, 2005; 41:1313). To visualize collagen deposition, Bouin's fixed liver sections were stained using picro-Sirius red solution (Waldeck, Germany). For quantitative analysis of fibrosis area, bright field images of Sirius red-stained sections were captured around the central vein using a digital camera (DFC295; Leica, Germany) at 200-fold magnification, and the positive areas in 5 fields/section were measured using ImageJ software (National Institute of Health, USA).
# [2] = system: STAM model of non-alcoholic steatohepatitis; assay: STAM model of NASH: Alpha-SMA immunostaining; assay type: in vivo, mice; details: for Alpha-SMA-positive area (mean ± SD): n = 8
# Protocol: NASH was induced in 48 male mice by a single subcutaneous injection of 200 μg streptozotocin (STZ, Sigma-Aldrich, USA) solution 2 days after birth and feeding with high fat diet (HFD, 57 kcal % fat, Cat #HFD32, CLEA Japan, Inc., Japan) after 4 weeks of age. Compound A was administered at 3 dose levels of 10, 20 and 40 mg/kg once daily from 6 to 9 weeks of age. Compound B was administered at a dose of 40 mg/kg once daily from 6 to 9 weeks of age. Telmisartan was administered at a dose of 10 mg/kg once daily from 6 to 9 weeks of age. […] (Table 9 herein after)
# Sugen hypoxia model = assay: Rat Sugen hypoxia model of pulmonary arterial hypertension: mean pulmonary pressure; assay type: in vivo; details: for Effect on mean pulmonary arterial pressure: rat Sugen hypoxia model, 70 mg/kg; for Mean Pulmonary Pressure: SuHx
# Protocol: Animals from Groups 2 to 5 (see Table 10) receive a single subcutaneous injection of sugen (20 mg/kg in 2 mL/kg volume) solution (10 mg/mL) on Day 0 and returned to their cages. Animals from Group 1 receive one subcutaneous injection of DMSO at 2 mL/kg (vehicle for sugen) on Day 0 and returned to their respective cages.
# Groups 2-5 are placed in cages for which the controlled air is adjusted to receive a FiO2 equivalent to 0.10 (10%) using a mixture of nitrogen and ambient air controlled by the ventilated cage system. They are kept under these hypoxic conditions for 21 days. While in hypoxia, cages are cleaned and changed once a week, exposing the animals to ambient oxygen levels for less than 10 minutes. They are exposed to ambient oxygen levels from Day 22 to Day 56. Group 1 animals remain in cages exposed to ambient oxygen (normoxic) levels for 56 days. The animals are observed on a daily basis for any changes in their behaviour and general health status.
# Treatment with the compound A, sildenafil or vehicle is administered as of Day 22 (Groups 2-5) as scheduled and described in Table 10. The Groups 2-4 receives a single dose per day. The reference group 5 receives sildenafil twice a day. Food and water are given ad libitum. Daily observation of the behaviour and general health status of the animals is done. Weekly body weight is taken.
# Surgical Instrumentation and Measurement of Hemodynamic and Functional Parameters in Efficacy Study Animals • 1. On the selected day of surgery, rats are anaesthetized with a mixture of 2 to 2.5% isoflurane USP (Abbot Laboratories, Montreal, Canada) in oxygen, and placed on a heating pad to maintain body temperature. • 2. Rats are tracheotomized and immediately ventilated by means of a positive-pressure rodent respirator set at ≈10 ml/kg body weight at a frequency of 65-70 strokes/min. • 3. Lead II ECG contact electrodes is placed on the rat to continuously monitor the ECG during the surgical procedure. • 4. A cannula connected to a pressure transducer is inserted into the left femoral artery to measure the arterial blood pressure. • 5. A cannula connected to a pressure transducer is inserted into the right atria through the right jugular vein to measure the right atria pressure. • 6. The heart is exposed through a sternotomy and a 20GA 1.16 in Insyte is introduced into the right ventricle and rapidly hooked up to a saline filled PE-50 catheter connected to a transducer. • 7. Following a few seconds of right ventricular pressure recording, the Insyte is further advanced into the pulmonary artery to allow PAP recording for an additional 60 seconds. • 8. Hemodynamic parameters are recorded continuously for the duration of the procedure or until loss of PAP signal. • 9. Following hemodynamic monitoring, chest cavity is further opened to expose the lung. The muscle over the trachea is dissected away to remove the lungs and heart. Harvested tissue is rinsed with PBS to remove any excess of blood before to be weighed. • 10. For the histology and casting of the lungs, the process is as follows; 1) eight (8) rats per group is reserved to assess the histology of the left lung and is therefore be treated as described in point 12 of this section 8.2; 2) Two (2) rats per group serve to enable quantitative characterization of the three-dimensional vascular structure of the left lung and therefore is treated as described in section 8.3 for casting of the left lung. • 11. For histology, the left lobe is inflated using a 10 mL syringe filled with fixative (10% NBF) with attached blunt tip needle (23 g). Needle tip is inserted into the trachea, held in place with tied suture while another syringe is tied to the pulmonary artery. The lung is inflated gently at physiological pressure (20-25 mmHg) until all lobes are fully, uniformly, and consistently expanded (not allowing fixative to ooze through lung surface). This provides optimal vascular and airway expansion without causing excessive tissue disruption. […]
# [3] = summary statement, dose not stated
# [4] = 10 mg/kg PO QD, 6-9 wks of age (Compound A low, Telmisartan groups), n = 8
# [5] = 20 mg/kg PO QD, 6-9 wks of age (Compound A middle group), n = 8
# [6] = 40 mg/kg PO QD, 6-9 wks of age (Compound A high, Compound B groups), n = 8
compound,measurement,setting,value
FC(F)(F)Oc1ccc(Nc2ccc3cccc(Cl)c3n2)cc1 [8-Chloro-N-(4-(trifluoromethoxy)phenyl)quinolin-2-amine],NAS compared with the Vehicle group,[1]; [3],decreasing trend
same,Alpha-SMA in the liver,[2]; [3],decreases
same,Effect on mean pulmonary arterial pressure,Sugen hypoxia model,tendency to decrease
"FC(F)(F)Oc1ccc(Nc2ccc3cccc(Cl)c3n2)cc1 [Compound A, 8-Chloro-N-(4-(trifluoromethoxy)phenyl)quinolin-2-amine]",NAS compared with the Vehicle group,"[1]; 10 mg/kg PO QD (Compound A low, Telmisartan groups)",tended to decrease; also recorded: decreasing trend
same,"Hepatocyte ballooning score 0 (None), number of mice",[1]; [4],3
same,"Hepatocyte ballooning score 1 (Few balloon cells), number of mice",[1]; [4],2
same,"Hepatocyte ballooning score 2 (Many cells/prominent ballooning), number of mice",[1]; [4],3
same,"Lobular inflammation score 2 (2-4 foci/200×), number of mice",[1]; [4],7
same,"Lobular inflammation score 3 (>4 foci/200×), number of mice",[1]; [4],1
same,NAFLD Activity score (mean ± SD),[1]; [4],3.6 ± 1.1
same,"Steatosis score 0 (<5%), number of mice",[1]; [4],4
same,"Steatosis score 1 (5-33%), number of mice",[1]; [4],4
same,NAS compared with the Vehicle group,[1]; 20 mg/kg PO QD (Compound A middle group),tended to decrease; also recorded: decreasing trends
same,"Hepatocyte ballooning score 0 (None), number of mice",[1]; [5],3
same,"Hepatocyte ballooning score 1 (Few balloon cells), number of mice",[1]; [5],3
same,"Hepatocyte ballooning score 2 (Many cells/prominent ballooning), number of mice",[1]; [5],2
same,"Lobular inflammation score 2 (2-4 foci/200×), number of mice",[1]; [5],6
same,"Lobular inflammation score 3 (>4 foci/200×), number of mice",[1]; [5],2
same,NAFLD Activity score (mean ± SD),[1]; [5],3.4 ± 1.2
same,"Steatosis score 0 (<5%), number of mice",[1]; [5],6
same,"Steatosis score 1 (5-33%), number of mice",[1]; [5],2
same,NAS compared with the Vehicle group,"[1]; 40 mg/kg PO QD (Compound A high, Compound B groups)",tended to decrease; also recorded: decreasing trend
same,"Hepatocyte ballooning score 0 (None), number of mice",[1]; [6],5
same,"Hepatocyte ballooning score 1 (Few balloon cells), number of mice",[1]; [6],2
same,"Hepatocyte ballooning score 2 (Many cells/prominent ballooning), number of mice",[1]; [6],1
same,"Lobular inflammation score 1 (<2 foci/200×), number of mice",[1]; [6],1
same,"Lobular inflammation score 2 (2-4 foci/200×), number of mice",[1]; [6],2
same,"Lobular inflammation score 3 (>4 foci/200×), number of mice",[1]; [6],5
same,NAFLD Activity score (mean ± SD),[1]; [6],3.4 ± 1.3
same,"Steatosis score 0 (<5%), number of mice",[1]; [6],5
same,"Steatosis score 1 (5-33%), number of mice",[1]; [6],3
same,Overall effect in this NASH model,[1]; conclusion of the study,potential anti-NAS and anti-fibrosis effects
same,NAS compared with the Vehicle group,[1]; [3],decreasing trends
same,Alpha-SMA-positive area (mean ± SD),"[2]; 10 mg/kg PO QD, 6-9 wks of age (Compound A low, Telmisartan groups)",1.39 ± 1.25%
same,Alpha-SMA-positive area (mean ± SD),"[2]; 20 mg/kg PO QD, 6-9 wks of age (Compound A middle group)",0.91 ± 0.55%
same,Alpha-SMA-positive area compared with the Vehicle group,[2]; 40 mg/kg PO QD (Compound A high group),tended to decrease
same,Alpha-SMA-positive area (mean ± SD),"[2]; 40 mg/kg PO QD, 6-9 wks of age (Compound A high, Compound B groups)",0.85 ± 0.41%
same,Mean Pulmonary Pressure,"Sugen hypoxia model; female rats, 70 mg/kg QD gavage Day 22 to Day 56",24.1 mmHg
same,Mean Pulmonary Pressure,"Sugen hypoxia model; female rats, 120 mg/kg QD gavage Day 22 to Day 56",34.4 mmHg
same,Mean Pulmonary Pressure,"Sugen hypoxia model; male rats, 70 mg/kg QD gavage Day 22 to Day 56",26.8 mmHg
same,Mean Pulmonary Pressure,"Sugen hypoxia model; male rats, 120 mg/kg QD gavage Day 22 to Day 56",33.6 mmHg
same,Effect on mean pulmonary arterial pressure,Sugen hypoxia model,tendency to decrease
